# Assay results reported in patent publication US10370391B2, “Hydrogen peroxide-activable, anti-oxidant compounds and methods using same” (Beth Israel Deaconess Medical Center, Inc., priority 2014, dated 2019).
# Experiments:
# [1] = test system: H2O2-stimulated adult rat cardiomyocytes; assay: Protection from H2O2-induced cell death in ARVC; type: cell-based; details: H2O2 0.25 mM; concentration dependent; vs vehicle
# Protocol: FIG. 4, comprising FIGS. 4A-4F, is a set of graphs, bar graphs and images illustrating anti-oxidant and anti-inflammatory effects of BRAP in vitro. […] The generation of ROS was monitored by flow cytometry as an indicator of DCF fluorescence. Fluorescence was analyzed in 10,000 cells with excitation at 480 nm and emission at 530 nm. FIG. 4C: Protective effect of BRAP on H2O2— stimulated adult rat cardiomyocytes. V=vehicle, *<0.05 vs. V+H2O2 (n=4). […] (n=4/group).
# Since cardiovascular disease is one of the most common and clinically relevant problems associated with oxidative stress injury, the effect of BRAP on cellular protection from the H2O2-induced cell death was further examined using ARVC in vitro.
# [2] = test system: human embryonic kidney (HEK 293) cells; assay: MTT cytotoxicity assay, HEK 293; type: cell-based; details: concentrations as high as 5 mM, 24 hours of incubation
# Protocol: FIG. 8, comprising FIGS. 8A-8B, is a set of bar graphs illustrating biocompatibility profiles of BRAP assessed by MTT assay in human embryonic kidney (HEK 293) cells (FIG. 8A) and mouse embryonic fibroblast (NIH 3T3) cells (FIG. 8B).
# 3-(4,5-Dimethylthiazil-2yl)-2,5-diphenyltetrazolium bromide (MTT) assay was performed to evaluate the cytotoxicity of BRAP. NIH 3T3 cells were cultured at a density of 1×10^5 cells/well in a 24 well plate, and RAW 264.7 cells and HEK cells were also cultured at a density of 2×10^5 cells/well in a 24 well plate. Cells were incubated for 24 hours to reach ˜80% confluency. Cells were treated with various amount of BRAP and incubated for 24 hours. Each well was given 100 μL of MTT solution and was incubated for 4 h. 200 μL of dimethyl sulfoxide (DMSO) were added to each well to dissolve the resulting formazan crystals. After 10 min incubation, the absorbance at 570 nm was measured using a microplate reader (Biotek Instruments, Winooski, Vt.). The cell viability was determined by comparing the absorbance of BRAP treated cells that of control cells.
# [3] = Stability of BRAP under acidic condition (1H NMR); type: physicochemical; details: pH 3.0, 72 hours of incubation
# Protocol: FIG. 2, comprising FIGS. 2A-2C, illustrates H2O2 scavenging effects of BRAP. FIG. 2A: Exemplary change of UV-absorbance of BRAP in the presence of H2O2. FIG. 2B: H2O2 scavenging by various concentrations of BRAP. H2O2 solution (10 μM) was mixed with HBA or BRAP for 1 min, and the chemiluminescent intensity was measured by adding diphenyl oxalate (10 mg) and rubrene (1 mg). *p<0.01, **p<0.001 relative to H2O2 only group (n=4/group). FIG. 2C: ^1H NMR spectrum of BRAP under acidic condition (pH=3.0) after 72 h.
# Without wishing to be limited by any theory, BRAP could scavenge H2O2 during its H2O2-mediated boronate oxidation. This possibility was investigated using peroxalate chemiluminescence. Peroxalate chemiluminescence has been used as a versatile tool for the detection of a variety of chemical species including fluorescent molecules and H2O2 because of its excellent specificity and simplicity (Hadd, et al., 1999, J. Chem. Educ. 76:1237; Lee, et al., 2011, Bull. Korean Chem. Soc. 32:2187). […] A majority of H2O2 was scavenged by the same concentration of BRAP within 1 minutes.
# hepatic I/R injury = assay: Mouse model of hepatic I/R injury; type: in vivo; details: ip at reperfusion
# Protocol: FIG. 5, comprising FIGS. 5A-5D, is a set of images and bar graphs illustrating beneficial effects of BRAP in hepatic I/R (1 hour ischemia/12 hour reperfusion) injury. FIG. 5A: Hematoxylin and eosin (H/E) staining, DHE staining, and TUNEL staining of mouse liver after injection with HBA or BRAP. FIGS. 5B-5D: Quantitative analysis of serum ALT levels (FIG. 5B), cleaved caspase-3 protein expression (FIG. 5C), and TNF-α protein expression (FIG. 5D) after I/R injury. *p<0.01 relative to Veh I/R. †p<0.05 relative to HBA I/R (n=3˜4/group). Actin protein expression was used as an internal control for protein loading.
# Experiments to evaluate whether BRAP reduces ROS generation and inhibits apoptosis were performed in a mouse model of […] I/R injuries. I/R was induced first by 1 hour of ligation of hepatic artery and portal vein followed by reperfusion of hepatic artery. BRAP or HBA was then administrated intraperitoneally (ip) at the time of reperfusion.
# Hepatic I/R surgery was performed in 12 week-old male mice. Briefly, mice were anaesthetized, and midline incision was performed for laparotomy. After identifying the portal triad and biliary tree, the main trunk of hepatic artery and portal vein were clamped with vascular clip except for the vasculatures to the right lower lobe to achieve ischemic injury to approximately 70% of the liver. After 1 hour of ischemia, reperfusion was achieved by releasing the vascular clip. No vascular clamp was done for the sham group of mice.
# For liver apoptosis assay, terminal deoxynucleotidyl transferase dUTP nick end labeling (TUNEL) staining was performed using a DeadEnd™ Fluorometric TUNEL kit (Promega, Madison, Wis.). Tissue sections were stained for nuclei (4′,6-diamidino-2-phenylindole (DAPI) staining) and apoptotic nuclei (TUNEL staining) and analyzed using a confocal laser scanning microscope. For heart tissues, TUNEL staining was performed using in situ cell death detection Kit, fluorescein (Roche Applied Science, Indianapolis, Ind.). To distinguish cardiomyocyte from non-cardiomyocyte nuclei, triple stain for nuclei (DAPI staining), apoptotic nuclei (TUNEL staining), and cardiomyocytes (α-Actinin staining) was used, and the stained sections were analyzed using confocal microscopy. A minimum of ˜10 high power fields with ˜2000 nuclei/field were counted for each sample.
# Heart tissues were collected for molecular analyses were performed in Bae, et al., 2010, Am J Physiol Heart Circ Physiol 299:H1374. For RT-PCR ribosomal 18S primers acted as internal controls and all RT-PCR signals were normalized to the 18S signal of the corresponding RT products. For Western blot analysis, the protein content was measured using BCA assay. Actin protein expression was used as an internal control for protein loading.
# The optimal cutting temperature (OCT)-embedded tissues were fixed in 4% paraformaldehyde. Tissue sections were incubated with 5 μM dihydroethidium (DHE, Sigma-Aldrich) at 37° C. for 30 min in a humidified chamber protected from light. Then, 4′,6-diamidino-2-phenylindole (DAPI) was applied. Images were acquired by confocal fluorescence microscope.
smiles,measurement,setting,value
"CC1(CO)COB(c2ccc(CO)cc2)OC1 [BRAP, (4-(5-(hydroxymethyl)-5-methyl-1,3,2-dioxaborinan-2-yl)phenyl)methanol]",protection from H2O2-induced cell death,[1],significant protection
same,cytotoxicity (MTT),[2],no significant cytotoxicity
same,stability in acidic environment,[3],not influenced
same,ROS generation (DHE staining) in liver,hepatic I/R injury,higher inhibitory effects on ROS generation than HBA
same,protection from I/R-induced liver damage (serum ALT),hepatic I/R injury,concentration-dependent protection
same,"hepatic damages (histology, H/E)","hepatic I/R injury; 1 hour ischemia/12 hour reperfusion, same dose of HBA and BRAP",significant attenuation
same,TNF-α protein expression,hepatic I/R injury; same dose of HBA and BRAP,significant inhibition
same,cleaved caspase-3 protein expression,hepatic I/R injury; same dose of HBA and BRAP,significant inhibition
same,hepatic apoptosis (TUNEL),hepatic I/R injury; same dose of HBA and BRAP,significantly greater anti-apoptotic effects than HBA
